From patent EP2241565A1, “Aurora kinase inhibitors compounds” (Universität Leipzig, priority 2009, dated 2010) come the findings set out here.

One test addresses T1, EGFR (Homo sapiens, UniProt P00533).
T1 construct: GST (N); purchased Biomol
Put plainly: RTK-Assay (ELISA, chemiluminescence). The format is biochemical. How it is done:
(§1) To determine the IC50 of receptor-tyrosine-kinase an assay based on the ELISA-principle using kinases from Biomol (N-terminally fused to GST), POD-coupled antibody from Calbiochem (PY20) and BM chemiluminescence ELISA substrate from Roche was followed.
(§2) In short, a white 96 wells microplate was incubated overnight with 100 µl/well of the substrate solution (poly-Glu-Tyr diluted with PBS to 100 µg/ml) at 4 °C. The solution was removed and the plate was washed twice for 2 min with PBS-T. Afterwards the kinase solution (50 µl/well)( KDR (VEGFR2), 5 ng; Flt4 (VEGFR3), 20 ng; EGFR, 5 ng; IGFR, 15 ng; FGFR, 10 ng and Tie2, 20 ng) and the inhibitor solution (25 µl/well) were added to each well. To perform positive and negative control, 5% aqueous DMSO (25 µl/well) were used instead of inhibitor solution. Addition of ATP solution (25 µl/well) started the reaction, whereas 40 mM MnCl2 solution (25 µl/well) was added to the negative control instead of ATP. After incubation under mild shaking conditions for 30 min at rt the plate was washed with PBS-T (3 x 2 min) and subsequently incubated with antibody solution (anti-Phosphotyrosine-antibody (POD-coupled) diluted 1:10.000 in PBS-T + 0,2% (m/v) BSA)(100 µl/well) for 1 h again while shaking. In the end the plate was washed with PBS-T (3x5 min) and provided with the chemiluminescence substrate (50 µl/well). After 3 min the occurring luminescence was measured using a luminometer. A positive control was measured without inhibitor to determine the activity of the kinase, a negative control without inhibitor and ATP to abstract the background signal from the results. For determination of IC50 values, the relative luminescence units per second (RLU/s) were blotted against the inhibitor concentrations. In doing so each concentration measurement was done triplicate and at least 5 different inhibitor concentrations were used to determine IC50 value.
(§3) This assay is based on the ELISA-principle using kinases from Biomol (N-terminally fused to GST), POD-coupled antibody from Calbiochem (PY20) and BM chemiluminescence ELISA substrate from Roche.
(§4) Each well of a 96 well microplate (white, flat bottom, Greiner, Lumitrac600) was covered with a kinase polypeptide substrate containing glutamate and tyrosine. The substrate was incubated with a kinase, a defined inhibitor concentration and ATP. After kinase inhibitor depending phosphorylation of the substrate a POD-coupled antibody was added that selectively binds to phosphorylated tyrosine. Finally, a chemiluminescence reagent was added and light emission measured using an Orion Microplate Luminometer (Berthold).
(§5) The detected counts correlate directly with the amount of phosphorylated tyrosine and indirectly with the activity of the inhibitor.
(§6) A positive control was measured without inhibitor to determine the activity of the kinase, a negative control without inhibitor and ATP to abstract the background signal from the results. For determination of IC50 values, the relative luminescence units per second (RLU/s) were blotted against the inhibitor concentrations. In doing so each concentration measurement was done triplicate and at least 5 different inhibitor concentrations were used to determine IC50 value.
(§7) The following solutions were prepared for the receptor-tyrosine-kinase assay: - PBS (10x) 1 g KCl, 1 g KH2PO4, 40 g NaCl, 13.2 g Na2HPO4, ad 1 l H2O - PBST (1x) PBS 10x + 0,5% Tween20 → diluted 1:10 - substrate poly-Glu-Tyr 4:1 (10mg/ml in PBS) → diluted with PBS to 100µg/ml - kinase buffer 100mM HEPES, 100mM NaCl, 0.1mM Na3VO4 - kinase solution kinase buffer, kinase stock solution diluted to reach the following concentration defined in the table Table "kinase dilution" […]
(In general: ELISA stands for enzyme-linked immunosorbent assay.)

In the next test the target is T2, Flt-4 (VEGFR3) (Homo sapiens, UniProt P35916).
T2 construct: GST (N); purchased Biomol
T2 sequence (P35916 25-1363, species assumed): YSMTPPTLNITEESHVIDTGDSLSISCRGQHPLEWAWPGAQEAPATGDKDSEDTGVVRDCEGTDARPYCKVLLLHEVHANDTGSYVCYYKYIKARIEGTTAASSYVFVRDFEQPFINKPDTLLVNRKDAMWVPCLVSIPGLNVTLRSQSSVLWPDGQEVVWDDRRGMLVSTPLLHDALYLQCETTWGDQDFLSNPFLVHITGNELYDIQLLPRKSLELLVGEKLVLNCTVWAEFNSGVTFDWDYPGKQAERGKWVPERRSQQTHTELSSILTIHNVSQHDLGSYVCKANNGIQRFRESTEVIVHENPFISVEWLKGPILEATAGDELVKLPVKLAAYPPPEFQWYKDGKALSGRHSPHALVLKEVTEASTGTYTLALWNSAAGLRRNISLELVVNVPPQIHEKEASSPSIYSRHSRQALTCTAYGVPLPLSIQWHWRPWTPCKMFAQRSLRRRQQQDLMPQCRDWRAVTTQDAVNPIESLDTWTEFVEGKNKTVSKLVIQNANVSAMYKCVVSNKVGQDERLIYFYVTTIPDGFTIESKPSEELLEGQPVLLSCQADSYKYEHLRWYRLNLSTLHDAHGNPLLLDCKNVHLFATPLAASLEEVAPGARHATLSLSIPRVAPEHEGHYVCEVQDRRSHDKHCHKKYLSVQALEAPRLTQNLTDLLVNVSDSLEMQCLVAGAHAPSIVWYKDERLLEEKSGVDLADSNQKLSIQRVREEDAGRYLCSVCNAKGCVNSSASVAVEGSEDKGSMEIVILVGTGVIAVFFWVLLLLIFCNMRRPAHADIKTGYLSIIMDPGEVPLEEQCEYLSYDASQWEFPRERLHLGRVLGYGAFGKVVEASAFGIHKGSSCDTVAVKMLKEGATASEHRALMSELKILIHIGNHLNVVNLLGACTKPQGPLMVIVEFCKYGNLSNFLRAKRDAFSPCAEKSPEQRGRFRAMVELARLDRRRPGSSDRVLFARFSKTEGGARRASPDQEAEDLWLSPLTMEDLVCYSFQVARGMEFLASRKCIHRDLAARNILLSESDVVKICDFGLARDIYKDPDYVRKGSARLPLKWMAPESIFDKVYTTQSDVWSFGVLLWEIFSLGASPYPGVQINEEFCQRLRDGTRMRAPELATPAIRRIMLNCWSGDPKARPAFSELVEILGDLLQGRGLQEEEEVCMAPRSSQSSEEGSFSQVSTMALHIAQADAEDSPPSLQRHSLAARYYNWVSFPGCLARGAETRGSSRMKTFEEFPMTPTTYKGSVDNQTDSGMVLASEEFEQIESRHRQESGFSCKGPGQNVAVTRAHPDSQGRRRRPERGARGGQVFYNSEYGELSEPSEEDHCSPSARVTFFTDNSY
Description: RTK-Assay (ELISA, chemiluminescence). The format is biochemical. Conditions: read-out: IC50 Flt-4 (VEGFR 3). On the procedure:
as §1, §2, §3, §4, §5, §6, §7

The target in the next test is T3, IGFR (Homo sapiens, UniProt P08069).
T3 construct: GST (N); purchased Biomol
T3 sequence (P08069 31-1367): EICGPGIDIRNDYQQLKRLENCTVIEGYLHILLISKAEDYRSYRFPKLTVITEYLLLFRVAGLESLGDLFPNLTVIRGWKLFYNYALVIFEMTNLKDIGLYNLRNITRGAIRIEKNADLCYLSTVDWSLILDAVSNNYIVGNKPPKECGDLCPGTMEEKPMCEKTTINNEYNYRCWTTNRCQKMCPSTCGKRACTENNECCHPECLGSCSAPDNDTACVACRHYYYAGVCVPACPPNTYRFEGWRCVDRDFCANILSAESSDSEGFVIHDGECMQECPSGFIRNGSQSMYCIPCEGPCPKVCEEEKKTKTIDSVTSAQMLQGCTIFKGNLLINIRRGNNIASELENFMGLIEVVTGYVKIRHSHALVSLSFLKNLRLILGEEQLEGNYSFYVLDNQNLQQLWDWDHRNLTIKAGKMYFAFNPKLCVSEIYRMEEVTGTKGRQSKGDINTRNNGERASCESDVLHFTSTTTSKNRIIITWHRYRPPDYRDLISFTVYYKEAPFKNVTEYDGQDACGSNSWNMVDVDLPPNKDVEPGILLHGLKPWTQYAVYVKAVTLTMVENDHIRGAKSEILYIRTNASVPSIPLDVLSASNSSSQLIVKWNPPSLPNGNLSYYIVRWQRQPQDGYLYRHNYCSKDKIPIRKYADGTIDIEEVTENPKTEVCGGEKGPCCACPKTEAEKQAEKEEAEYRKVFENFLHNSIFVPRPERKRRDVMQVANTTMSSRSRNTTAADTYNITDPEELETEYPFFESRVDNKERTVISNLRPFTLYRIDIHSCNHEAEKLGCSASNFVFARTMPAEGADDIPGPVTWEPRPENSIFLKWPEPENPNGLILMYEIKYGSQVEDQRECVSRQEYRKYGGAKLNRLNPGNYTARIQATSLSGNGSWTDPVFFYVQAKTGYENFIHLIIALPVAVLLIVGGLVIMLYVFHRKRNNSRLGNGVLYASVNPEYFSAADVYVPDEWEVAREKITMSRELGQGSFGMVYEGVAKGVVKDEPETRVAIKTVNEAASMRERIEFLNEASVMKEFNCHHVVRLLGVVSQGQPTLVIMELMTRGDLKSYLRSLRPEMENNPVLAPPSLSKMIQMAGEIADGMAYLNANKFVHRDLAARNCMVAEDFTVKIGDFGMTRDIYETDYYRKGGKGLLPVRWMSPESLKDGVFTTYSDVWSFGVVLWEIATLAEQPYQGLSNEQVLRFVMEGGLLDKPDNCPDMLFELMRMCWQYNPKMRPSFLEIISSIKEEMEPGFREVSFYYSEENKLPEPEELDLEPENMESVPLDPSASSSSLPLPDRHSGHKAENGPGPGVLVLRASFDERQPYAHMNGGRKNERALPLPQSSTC
Description: RTK-Assay (ELISA, chemiluminescence). The format is biochemical. How it is done:
as §1, §2, §3, §4, §5, §6, §7

A further test addresses T4, Tie2 (Homo sapiens, UniProt Q02763).
T4 construct: GST (N); purchased Biomol
Description: RTK-Assay (ELISA, chemiluminescence). It is filed as biochemical. Conditions: read-out: IC50 Tie-2. How it is done:
as §1, §2, §3, §4, §5, §6, §7

The target in another test is T5, KDR (VEGFR2) (Homo sapiens, UniProt P35968).
T5 construct: GST (N); purchased Biomol
Put plainly: RTK-Assay (ELISA, chemiluminescence). It is filed as biochemical. Conditions: read-out: IC50 KDR (VEGFR 2). On the procedure:
as §1
as §2, with “A positive control was measured without inhibitor to determine the activity of the kinase, a negative control without inhibitor and ATP to abstract the background signal from the results.” left out
This assay is based on the ELISA-principle using kinases from Biomol (N-terminally fused to GST), POD-coupled antibody from Calbiochem (PY20) and BM chemiluminescence ELISA substrate from Roche. […]
For determination of IC50 values, the relative luminescence units per second (RLU/s) were blotted against the inhibitor concentrations. […]

Another test deals with hTERT-RPE1 cells. Put plainly: Cilia disassembly assay. Conditions: pretreatment 40 µM, serum stimulation after 48 h starvation. The format is cell-based. How it is done:
Cilia assembly and disassembly assays were performed as described in Pugacheva et al., Cell 2007, 129, 1351-1363. […] For analysis of cilia disassembly, cilia were assembled by 48 h starvation in Opti-MEM, and disassembled by incubation in DMEM-10% serum. Cells were fixed after 2 and 4 h. […] To visualize the centrosomes and the cilia, fixed cells were immunostained with anti-γ-tubulin (Sigma GTU88) and anti-acetylated-tubulin (Sigma), and DNA was stained with Hoechst.

Entries after “also recorded” stand apart in the source; their conditions may differ.

As usually defined, the IC50 is the midpoint of a concentration-inhibition curve.

T1 sequence (P00533 25-1210, species assumed): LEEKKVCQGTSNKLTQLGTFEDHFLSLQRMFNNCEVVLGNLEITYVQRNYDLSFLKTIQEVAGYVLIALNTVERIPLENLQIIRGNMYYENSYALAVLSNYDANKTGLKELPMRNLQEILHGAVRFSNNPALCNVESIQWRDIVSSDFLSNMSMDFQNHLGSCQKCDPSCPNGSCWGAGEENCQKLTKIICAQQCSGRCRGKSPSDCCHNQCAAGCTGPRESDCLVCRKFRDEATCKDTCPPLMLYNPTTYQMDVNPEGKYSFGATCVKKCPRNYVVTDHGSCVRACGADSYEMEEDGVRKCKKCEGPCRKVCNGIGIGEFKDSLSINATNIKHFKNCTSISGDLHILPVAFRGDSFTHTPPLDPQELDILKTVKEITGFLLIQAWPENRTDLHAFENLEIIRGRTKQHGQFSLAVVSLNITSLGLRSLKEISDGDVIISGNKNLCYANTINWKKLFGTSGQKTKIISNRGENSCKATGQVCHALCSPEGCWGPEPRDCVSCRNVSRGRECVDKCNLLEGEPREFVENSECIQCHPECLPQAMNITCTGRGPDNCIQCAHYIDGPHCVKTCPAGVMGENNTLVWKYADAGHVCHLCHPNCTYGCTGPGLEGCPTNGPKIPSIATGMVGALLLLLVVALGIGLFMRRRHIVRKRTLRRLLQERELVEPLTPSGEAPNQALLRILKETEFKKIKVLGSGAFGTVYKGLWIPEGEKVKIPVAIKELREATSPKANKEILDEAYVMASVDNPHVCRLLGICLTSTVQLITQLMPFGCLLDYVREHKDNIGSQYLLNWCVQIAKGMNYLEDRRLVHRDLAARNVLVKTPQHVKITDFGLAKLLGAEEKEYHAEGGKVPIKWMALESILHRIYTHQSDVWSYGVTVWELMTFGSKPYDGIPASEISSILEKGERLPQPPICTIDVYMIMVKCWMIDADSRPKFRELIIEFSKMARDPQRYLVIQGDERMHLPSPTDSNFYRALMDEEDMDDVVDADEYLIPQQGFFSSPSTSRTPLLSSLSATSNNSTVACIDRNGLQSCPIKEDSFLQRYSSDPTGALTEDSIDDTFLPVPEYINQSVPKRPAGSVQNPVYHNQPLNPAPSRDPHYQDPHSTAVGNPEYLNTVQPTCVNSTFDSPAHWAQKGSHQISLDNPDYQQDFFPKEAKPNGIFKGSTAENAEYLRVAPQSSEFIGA
T4 sequence (Q02763 23-1124, species assumed): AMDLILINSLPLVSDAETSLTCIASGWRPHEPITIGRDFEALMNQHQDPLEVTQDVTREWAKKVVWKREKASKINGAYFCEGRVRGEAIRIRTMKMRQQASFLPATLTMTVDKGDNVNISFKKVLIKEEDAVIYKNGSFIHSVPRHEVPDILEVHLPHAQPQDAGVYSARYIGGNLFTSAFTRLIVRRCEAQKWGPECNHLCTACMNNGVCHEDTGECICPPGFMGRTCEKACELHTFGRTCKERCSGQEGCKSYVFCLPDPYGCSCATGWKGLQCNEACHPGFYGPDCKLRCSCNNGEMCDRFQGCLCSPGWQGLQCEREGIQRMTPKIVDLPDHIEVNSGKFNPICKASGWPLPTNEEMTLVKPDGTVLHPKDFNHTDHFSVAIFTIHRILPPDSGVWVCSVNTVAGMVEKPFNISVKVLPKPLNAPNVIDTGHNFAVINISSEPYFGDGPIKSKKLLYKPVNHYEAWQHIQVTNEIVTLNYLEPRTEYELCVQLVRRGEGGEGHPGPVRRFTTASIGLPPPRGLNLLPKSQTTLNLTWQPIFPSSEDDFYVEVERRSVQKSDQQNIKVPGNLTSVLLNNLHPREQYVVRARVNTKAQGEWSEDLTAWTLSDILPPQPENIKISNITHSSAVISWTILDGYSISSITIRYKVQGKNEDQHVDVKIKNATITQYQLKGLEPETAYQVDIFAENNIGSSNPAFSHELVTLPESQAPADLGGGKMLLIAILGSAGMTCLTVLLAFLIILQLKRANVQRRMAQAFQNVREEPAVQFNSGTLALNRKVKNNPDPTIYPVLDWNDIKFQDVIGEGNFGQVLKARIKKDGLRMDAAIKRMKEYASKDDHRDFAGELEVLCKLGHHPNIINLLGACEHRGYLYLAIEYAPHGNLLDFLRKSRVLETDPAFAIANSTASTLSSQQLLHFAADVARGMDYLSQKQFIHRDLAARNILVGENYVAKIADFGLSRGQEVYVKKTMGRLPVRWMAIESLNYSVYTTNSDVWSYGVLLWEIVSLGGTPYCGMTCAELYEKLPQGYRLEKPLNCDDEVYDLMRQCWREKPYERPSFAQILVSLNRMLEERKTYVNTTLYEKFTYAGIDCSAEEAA

On to `CC(C)Nc1nc(-c2ccco2)nc2ccc(C#CCO)cc12` [Compound (C), 3-(2-(Furan-2-yl)-4-(isoiproipylamino)quinazolin-6-yl)prop-2-yn-l-ol], for which the IC50 on EGFR, at Flt-4 (VEGFR3), against IGFR, on Tie2 and on KDR (VEGFR2) was over 100 µM each time. Also, the cilia disassembly entry with hTERT-RPE1 cells is on record as “strongly inhibited; also recorded: impaired”.

For the compound `CC(C)Nc1nc(-c2ccco2)nc2ccc(/C=C/C(C)(C)O)cc12` [Compound (A), (E)-4-(2-(Furan-2-yl)-4-(isopropylamino)quinazolin-6-yl)-2-methylbut-3-en-2-ol], the IC50 at EGFR was over 100 µM; at Flt-4 (VEGFR3) it was 4.24 µM; on IGFR, 41.5 µM; at Tie2, over 100 µM.
